Assay results: PMC5622171 (Nature Communications, 2017)
“Also recorded” adds a separate entry of the source.

Assays:
LXRβ = LXRβ (Homo sapiens, UniProt P55055); assay: GeneBLAzer NR-UAS-bla HEK 293 T assay; format: cell-based; details: antagonistic mode; only at concentrations higher than 5 µM
LS180 cells (parental) = assay: CellTiter-Glo cytotoxicity assay; details: 10 µM SPA70
LS1034 cells = assay: CellTiter-Glo cytotoxicity assay; details: 10 µM SPA70
C57BL/6 mice = assay: Animal acute toxicity study; details: oral 500 mg kg−1, days 13 and 15
hPXR [1] = target: T1, hPXR (Homo sapiens, UniProt O75469); assay: hPXR transactivation assay, HepG2 stable cell line, antagonistic mode; details: SPA70 concentration of 10 μM; all rifampicin concentrations tested
T1 sequence (O75469 1-434): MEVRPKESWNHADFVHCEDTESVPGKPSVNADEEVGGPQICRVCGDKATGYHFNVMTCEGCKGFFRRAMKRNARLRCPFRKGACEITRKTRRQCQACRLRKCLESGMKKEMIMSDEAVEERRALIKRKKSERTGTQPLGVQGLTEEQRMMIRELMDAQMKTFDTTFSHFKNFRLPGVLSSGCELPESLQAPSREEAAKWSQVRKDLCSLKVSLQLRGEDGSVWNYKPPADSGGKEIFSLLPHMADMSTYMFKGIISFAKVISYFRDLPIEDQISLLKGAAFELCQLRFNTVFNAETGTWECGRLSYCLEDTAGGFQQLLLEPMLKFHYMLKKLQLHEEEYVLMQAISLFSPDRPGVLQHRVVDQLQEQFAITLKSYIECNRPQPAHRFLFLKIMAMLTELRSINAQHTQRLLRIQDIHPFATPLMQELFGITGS

hPXR [2] = assay: Liver Cyp3a11 mRNA and protein in hPXR transgenic mice; format: in vivo, mouse; details: hPXR humanized transgenic mice, SPA70 200 mg kg−1, RIF 10 mg kg−1, 72 h
Description: Cells were rinsed once with cold PBS then lysed in RIPA lysis buffer (Thermo Fisher Scientific) containing protease inhibitor (Roche). Mouse liver samples were homogenized in 500 μl of cold RIPA lysis buffer in a Bullet Blender Blue homogenizer (Next Advance, Averill Park, NY). Then, 25 μg of total protein lysates were loaded onto NuPAGE 4%–12% Bis-Tris gels (Invitrogen) with NuPAGE MES SDS running buffer (Invitrogen). The proteins were transferred from the gel to a nitrocellulose membrane by using the iBlot gel-transfer system (Invitrogen). […] The relative intensity of each protein band was then determined by normalizing the intensity of each protein band to that of actin. […]
The method used for RNA extraction and polymerase chain reaction with reverse transcription (RT-PCR) has been described previously. […] Quantitative RT-PCR was performed in accordance with the manufacturer’s protocol by using TaqMan gene expression assays (Thermo Fisher Scientific) specific for the hPXR and Cyp3a11 genes, with GAPDH or 18s rRNA as the reference gene, in an ABI 7900HT Fast Real-Time PCR System (Thermo Fisher Scientific). […] The comparative threshold (Ct) method was used for the relative quantification of gene expression by the following formulae: ΔCt = Ct (test gene) − Ct (GAPDH); ΔΔCt (test gene) = ΔCt (test gene in treatment group) − ΔCt (test gene in vehicle control group). […]

HepG2 cells = assay: One- and 3-day cytotoxicity assay; format: cell-based, human; details: HepG2, one- and 3-day
Description: (§1) After the plated had been incubated for 24 or 72 h at 37 °C, the cytotoxicity was determined using a CellTiter-Glo luminescent cell viability assay (Promega). […] The final DMSO concentration was 0.5% for all wells.

HEK293 cells = assay: One- and 3-day cytotoxicity assay; format: cell-based, human; details: HEK293, one- and 3-day
Description: as §1

hPXR [3] = target: T1, hPXR; assay: hPXR transactivation assay using transient transfection in LS180 cells; format: cell-based; design: expressed in transfected cells; details: SPA70 10 μM, SJB7 4 μM
Description: The hPXR transactivation assay using transient transfection (agonist and antagonist modes) were performed as described previously. Briefly, LS180 cells were co-transfected with pGL3-CYP3A4-luc (CYP3A4-luciferase reporter) and pRL-TK (as a transfection control), together with pcDNA3, pcDNA3-hPXR, pcDNA3-hPXRM425A, or pcDNA3-hPXRF429A, by using FuGENE 6 (Roche). The pcDNA3-hPXR mutants (pcDNA3-hPXRM425A and pcDNA3-hPXRF429A) were obtained from Codex BioSolutions, Inc. (Gaithersburg, MD). Mutations were verified through nucleotide sequencing, using primers shown in Supplementary Table 3.

SNU-C4 cells = assay: CellTiter-Glo cytotoxicity assay; details: 10 µM SPA70

Sequence of LXRβ (P55055 222-460 limits assumed): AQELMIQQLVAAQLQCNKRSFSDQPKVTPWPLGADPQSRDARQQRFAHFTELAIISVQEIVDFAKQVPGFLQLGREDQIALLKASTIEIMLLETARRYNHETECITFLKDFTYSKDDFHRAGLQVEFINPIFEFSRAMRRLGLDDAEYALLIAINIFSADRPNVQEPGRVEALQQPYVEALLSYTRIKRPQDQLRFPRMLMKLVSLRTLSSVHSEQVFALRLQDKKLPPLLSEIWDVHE

SMILES: COc1ccc(OC)c(-n2nnc(S(=O)(=O)c3ccc(C(C)(C)C)cc3)c2C)c1 [SPA70]
- Effect on agonistic activity of T0901317 on LXRβ (LXRβ): weakly promoted the agonistic effect of T0901317 on LXRβ; also recorded: marginally increased the agonistic activity of T0901317 on LXRβ
- Toxicity of SPA70 alone in LS180 cells (LS180 cells (parental)): marginally toxic
- Sensitization of LS1034 cells to paclitaxel and vincristine (LS1034 cells): sensitized LS1034 cells to both paclitaxel and vincristine
- Mouse body weight (C57BL/6 mice): increase in mouse body weight
- Effect on rifampicin-induced hPXR activation (hPXR [1]): completely blocked the activity of rifampicin
- Effect on rifampicin-induced expression of Cyp3a11 (mRNA and protein) (hPXR [2]): effectively blocked the rifampicin-induced expression of Cyp3a11
- Cytotoxicity (HepG2 cells): marginal cytotoxicity
- Cytotoxicity (HEK293 cells): marginal cytotoxicity
- Effect on activation of hPXR by SJB7 (hPXR [3]): effectively block the activation of hPXR
- Sensitization of SNU-C4 cells to paclitaxel and vincristine (SNU-C4 cells): sensitizing the cells to paclitaxel and vincristine
